# Experiments:
# LH3/PLOD3 [1] = target: T1, LH3/PLOD3 (Homo sapiens, UniProt O60568); test: luminescence-based Glc-T competition assay; type: biochemical; settings: read-out: UDP-Glc (IC50)
# T1 construct: 6xHis-tag and TEV site; secreted from HEK293-F cells
# T1 sequence (O60568 25-738): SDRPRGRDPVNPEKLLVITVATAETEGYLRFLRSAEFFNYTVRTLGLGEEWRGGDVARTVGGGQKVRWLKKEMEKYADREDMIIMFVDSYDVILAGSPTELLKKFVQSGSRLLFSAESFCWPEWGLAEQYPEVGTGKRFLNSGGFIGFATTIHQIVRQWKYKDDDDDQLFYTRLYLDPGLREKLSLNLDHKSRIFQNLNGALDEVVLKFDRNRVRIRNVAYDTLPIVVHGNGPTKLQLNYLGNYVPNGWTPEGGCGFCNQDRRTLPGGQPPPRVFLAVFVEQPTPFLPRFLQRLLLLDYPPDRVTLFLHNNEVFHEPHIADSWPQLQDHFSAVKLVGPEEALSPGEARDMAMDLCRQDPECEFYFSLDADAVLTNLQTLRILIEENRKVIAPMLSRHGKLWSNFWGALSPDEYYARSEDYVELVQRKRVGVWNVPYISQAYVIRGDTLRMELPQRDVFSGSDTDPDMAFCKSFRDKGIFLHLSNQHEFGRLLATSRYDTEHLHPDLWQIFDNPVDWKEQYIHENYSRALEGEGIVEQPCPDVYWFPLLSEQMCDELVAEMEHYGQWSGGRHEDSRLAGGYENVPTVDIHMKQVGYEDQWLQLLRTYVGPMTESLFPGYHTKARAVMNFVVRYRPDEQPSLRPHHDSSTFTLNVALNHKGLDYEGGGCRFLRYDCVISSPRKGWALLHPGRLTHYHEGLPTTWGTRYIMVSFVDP
# Excerpt: luminescence-based Glc-T competition assay on LH3/PLOD3
# LH3/PLOD3 [2] = target: T1, LH3/PLOD3; test: differential scanning fluorimetry; type: binding; settings: 50 mM MnCl2, 5 mM ligand, 25 mM HEPES, 500 mM NaCl, pH 8
IC50 (LH3/PLOD3 [1]),thermal shift (LH3/PLOD3 [2]),Structure (SMILES)
> 10 mM,1–1.5 °C,O=C(O)[C@H]1O[C@H](OP(=O)(O)OP(=O)(O)OC[C@H]2O[C@@H](n3ccc(=O)[nH]c3=O)[C@H](O)[C@@H]2O)[C@H](O)[C@@H](O)[C@@H]1O [UDP-GlcA]
3.17 ± 0.211 mM,–,O=c1ccn([C@@H]2O[C@H](COP(=O)(O)OP(=O)(O)O[C@H]3OC[C@@H](O)[C@H](O)[C@H]3O)[C@@H](O)[C@H]2O)c(=O)[nH]1 [UDP-Xyl]
–,3–3.5 °C,O=c1ccn([C@@H]2O[C@H](COP(=O)(O)OP(=O)(O)O)[C@@H](O)[C@H]2O)c(=O)[nH]1 [UDP]
